The source of these data is patent publication US8377943B2, “2,4-diaminopyrimidine derivates as PTK2-inhibitors for the treatment of abnormal cell growth” (Boehringer Ingelheim International GmbH, priority 2008, dated 2013).

pEC50, pIC50: −log10 of the molar value.

T1 sequence (Q05397 whole entry): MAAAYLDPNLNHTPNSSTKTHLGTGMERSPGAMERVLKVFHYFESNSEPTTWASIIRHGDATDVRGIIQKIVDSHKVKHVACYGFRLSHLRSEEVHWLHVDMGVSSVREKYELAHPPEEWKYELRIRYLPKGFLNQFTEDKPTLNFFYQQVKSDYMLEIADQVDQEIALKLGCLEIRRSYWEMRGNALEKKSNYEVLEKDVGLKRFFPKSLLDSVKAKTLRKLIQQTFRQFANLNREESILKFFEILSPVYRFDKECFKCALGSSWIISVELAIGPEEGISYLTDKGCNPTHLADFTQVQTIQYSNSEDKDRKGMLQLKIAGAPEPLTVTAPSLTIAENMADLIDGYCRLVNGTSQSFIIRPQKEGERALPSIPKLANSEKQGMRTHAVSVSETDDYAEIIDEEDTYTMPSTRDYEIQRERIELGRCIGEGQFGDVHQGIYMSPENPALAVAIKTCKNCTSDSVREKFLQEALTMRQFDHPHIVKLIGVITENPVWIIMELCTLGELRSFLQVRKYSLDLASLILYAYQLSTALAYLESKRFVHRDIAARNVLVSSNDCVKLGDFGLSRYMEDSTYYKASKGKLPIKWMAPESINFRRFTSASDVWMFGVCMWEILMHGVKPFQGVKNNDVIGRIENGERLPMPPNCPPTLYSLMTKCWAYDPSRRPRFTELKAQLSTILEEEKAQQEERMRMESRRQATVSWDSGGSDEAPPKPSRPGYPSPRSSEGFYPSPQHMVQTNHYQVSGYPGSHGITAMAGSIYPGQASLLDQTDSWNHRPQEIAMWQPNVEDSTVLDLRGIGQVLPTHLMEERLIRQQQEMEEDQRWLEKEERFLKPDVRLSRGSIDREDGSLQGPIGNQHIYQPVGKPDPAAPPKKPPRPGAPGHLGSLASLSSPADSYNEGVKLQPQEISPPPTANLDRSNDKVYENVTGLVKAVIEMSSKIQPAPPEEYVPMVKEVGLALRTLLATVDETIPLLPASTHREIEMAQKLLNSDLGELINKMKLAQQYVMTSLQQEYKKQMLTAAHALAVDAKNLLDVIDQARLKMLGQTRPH

One experiment has as its target T1, PTK2-phosphorylation at tyrosine 397 (pY397) (Homo sapiens, UniProt Q05397).
T1 construct: endogenous in cells; host or cells: PC-3 (ATCC CRL-1435)
Nature of the experiment: Phospho-PTK2 (pY397) Assay in PC-3 cells. It is filed as cell-based. The settings on record: PC-3 prostate carcinoma cells, 2 h incubation; read-out: PC3pPTK2 Y397 EC50. The procedure: This cellular test is used to determine the influence of PTK2-inhibitors on the state of the PTK2-phosphorylation at tyrosine 397 (pY397).
PC-3 cells (prostate carcinoma, ATCC CRL-1435) are grown in cell culture flasks (175 cm^2) with F12 Kaighn's Medium (Gibco, No.: 21127) with the addition of 10% foetal calf serum (Invitrogen, No.: 16000-044). The cultures are incubated in the incubator at 37° C. and 5% CO2 and run twice a week.
For the test, 2×10^4 cells pro well/[…] are plated out in 96-well microtitre plates (Costar, No.: 3598) and incubated overnight in the incubator at 37° C. and 5% CO2. The test compounds (10 μL from serial dilution) are added the next day. The concentration of the test compounds usually covers a range of 50 μM and 0.8 nM. The test compounds (stock solution: 10 mM in 100% DMSO) are diluted in medium/medium 10% DMSO such that the final concentration is 1% DMSO. The cells are then incubated in the incubator at 37° C. and 5% CO2 for 2 h. Then the culture supernatant is removed and the cells are fixed with 150 μL 4% formaldehyde in D-PBS for 20 min at RT. The cell lawn is washed five times with 200 μL 0.1% Triton X-100 in D-PBS for 5 min in each case and then incubated for 90 min with blocking buffer (5% skimmed milk powder (Maresi Fixmilch) in TBST (25 mM Tris/HCl, pH 8.0, 150 mM NaCl, 0.05% Tween 20). The blocking buffer is replaced by 50 μL of the first antibody anti-phospho PTK2 [pY397] rabbit monoclonal (Invitrogen/Biosource, No.: 44-625G), which is diluted 1:200 in blocking buffer. For control purposes, alternatively a PTK2 [total] antibody (clone 4.47 mouse monoclonal, Upstate, No.: 05-537), diluted 1:400 in blocking buffer is used. This incubation is carried out at 4° C. overnight. Then the cell lawn is washed five times with 100 μL of 0.1% Tween in D-PBS for 5 min in each case and 50 μL/well of second antibody are added. In order to detect bound phospho-PTK2 [pY397] antibody a goat-anti-rabbit antibody is used which is coupled with horseradish peroxidase (Dako, No.: P0448; 1:500 dilution in blocking buffer). In order to detect bound PTK2 [total]-antibodies a rabbit-anti-mouse antibody is used, which is also coupled with horseradish peroxidase (Dako, No.: PO161; 1:1000 dilution in blocking buffer). This incubation is carried out for 1 h at RT with gentle shaking. The cell lawn is then again washed five times with 100 μL of 0.1% Tween in D-PBS for 5 min in each case. […] The EC50 values are determined from concentration-activity analyses by iterative calculation with the aid of a sigmoidal curve analysis algorithm (FIFTY, based on GraphPAD Prism Version 3.03) with a variable Hill coefficient.
Turning to `COc1cc(CNC2CCCCC2)ccc1Nc1ncc(C(F)(F)F)c(NCc2ccc(C)cc2N(C)S(C)(=O)=O)n1` [Example 109], the pEC50 was 8.70.
On to `CNCc1ccc(Nc2ncc(C(F)(F)F)c(NCc3ccc(C)cc3N(C)S(C)(=O)=O)n2)c(OC)c1` [Example 25], for which the pEC50 is 9.62.
The same measure, in the same setting: under `COc1cc(CN(C)C)ccc1Nc1ncc(C(F)(F)F)c(NCc2ccc(C)cc2N(C)S(C)(=O)=O)n1` [Example 3] stands 9.96; under `CCNCc1ccc(Nc2ncc(C(F)(F)F)c(NCc3ccc(C)cc3N(C)S(C)(=O)=O)n2)c(OC)c1` [Example 66], 9.15.
Same read-out and setting: under `COc1cc(C(=O)N[C@H]2CC[C@H](N3CCOCC3)CC2)ccc1Nc1ncc(C(F)(F)F)c(NCc2ccc(C)cc2N(C)S(C)(=O)=O)n1` [Example 76] stands 9.06; under `COc1cc(C(=O)NC2CCN(C3CCOCC3)CC2)ccc1Nc1ncc(C(F)(F)F)c(NCc2ccc(C)cc2N(C)S(C)(=O)=O)n1` [Example 44], 9.38; under `COc1cc(N2CCN(C3COC3)CC2)ccc1Nc1ncc(C(F)(F)F)c(NCc2ccc(F)cc2N(C)S(C)(=O)=O)n1` [Example 98], 8.70.
Same read-out and setting: next, `COc1cc(CNC2CCOCC2)ccc1Nc1ncc(C(F)(F)F)c(NCc2ccc(C)cc2N(C)S(C)(=O)=O)n1` [Example 35]: 9.51; `COc1cc(C(=O)NC2CCN(c3ccccc3)CC2)ccc1Nc1ncc(C(F)(F)F)c(NCc2ccc(C)cc2N(C)S(C)(=O)=O)n1` [Example 55]: 9.25.
As to `COc1ccc(CNc2nc(Nc3ccc(NC(C)=O)c(OC)c3)ncc2C(F)(F)F)c(N(C)S(C)(=O)=O)c1` [Example 87], the pEC50 was 9.00.
On the same count and under the same terms, next, `COc1cc(CNC(C)C)ccc1Nc1ncc(C(F)(F)F)c(NCc2ccc(C)cc2N(C)S(C)(=O)=O)n1` [Example 89]: 9.00; `COc1cc(CNC2CC2)ccc1Nc1ncc(C(F)(F)F)c(NCc2ccc(C)cc2N(C)S(C)(=O)=O)n1` [Example 72]: 9.12; `COc1cc(C(=O)NC2CCN3CCCC3C2)ccc1Nc1ncc(C(F)(F)F)c(NCc2ccc(C)cc2N(C)S(C)(=O)=O)n1` (stereo not shown) [Example 49]: 9.29.
Same read-out and setting: next, `COc1cc(CNC2CCN(C)CC2)ccc1Nc1ncc(C(F)(F)F)c(NCc2ccc(C)cc2N(C)S(C)(=O)=O)n1` [Example 59]: 9.23.

In another experiment the target is T2, PTK2 (Homo sapiens, UniProt Q05397).
T2 construct: purchased Invitrogen PV3832
T2 sequence (Q05397 whole entry): as above
Put plainly: PTK2 Enzyme Test (DELFIA assay, poly-Glu-Tyr substrate). Type of experiment: biochemical. The settings on record: active PTK2 enzyme, 50 μM ATP in ATP Mix, 1 h pre-incubation. The method, then:
This test uses active PTK2 enzyme (Invitrogen Code PV3832) and poly-Glu-Tyr (4:1, Sigma P-0275) as the kinase substrate. The kinase activity is detected by means of the phosphorylation of the substrate in a DELFIA™ assay. The phosphorylated substrate is detected with the Europium-labelled phosphotyrosine antibody PY20 (Perkin Elmer, No.: AD0038).
In order to determine concentration-activity curves with PTK2-inhibitors the compounds are serially diluted in 10% DMSO/H2O and 10 μL of each dilution are dispensed per well in a 96-well microtitre plate (clear U-shaped base plate, Greiner No. 650101) (the inhibitors are tested in duplicates) and mixed with 10 μL/well of PTK2 kinase (0.01 μg/well). PTK2 kinase is diluted accordingly beforehand with kinase dilution buffer (20 mM TRIS/HCl pH 7.5, 0.1 mM EDTA, 0.1 mM EGTA, 0.286 mM sodium orthovanadate, 10% glycerol with the addition of freshly prepared BSA (fraction V 1 mg/mL) and DTT (1 mM)). The test compound and the PTK2 kinase are pre-incubated for 1 h at RT and shaken at 500 rpm. Then 20 μL ATP Mix (30 mM TRIS/HCl pH 7.5, 0.02% Brij, 0.2 mM sodium orthovanadate, 10 mM magnesium acetate, 0.1 mM EGTA, 1× Phosphatase Inhibitor Cocktail 1 (Sigma, No.: P2850), 50 μM ATP (Sigma, No.: A3377; 15 mM stock solution)) are added. The reaction is started by the addition of 10 μL/well of poly (Glu,Tyr) substrate (25 μg/well poly (Glu,Tyr), 0.05 μg/well biotinylated poly (Glu,Tyr) dissolved in 250 mM TRIS/HCl pH 7.5, 9 mM DTT)—the final concentration of DMSO is 2%. After 1 h kinase reaction (the plates are shaken at 500 rpm), the reaction is stopped by the addition of 12 μL/well of 100 mM EDTA, pH 8. And shaken for a further 5 min at RT (500 U/min).
55 μL of the reaction mixture are transferred into a streptavidin plate (Strepta Well High Bind (transparent, 96-well) made by Roche, No.: 11989685001) and incubated for 1 h at RT (shaking at 500 rpm). Then the microtitre plate is washed three times with 200 μL/well D-PBS (Invitrogen, No.:14190). 100 μL of 1:2000 diluted DELFIA Eu-N1 Anti-Phosphotyrosine PY20 antibody (Perkin Elmer, No.: AD0038, 1:2000 diluted in DELFIA test buffer (Perkin Elmer, No.: 1244-111)) is then added and it is incubated for 1 h at RT (shaking at 500 rpm). Then the plate is washed three times with 200 μL/well DELFIA washing buffer (Perkin Elmer, No.: 1244-114), 200 μL/well strengthening solution (Perkin Elmer, No.: 1244-105) is added and the whole is incubated for 10 min at RT (shaking at 300 rpm).
The time-delayed europium fluorescence is then measured in a microtitre plate reader (Victor, Perkin Elmer). The positive control consists of wells that contain solvent (2% DMSO in test buffer) and display uninhibited kinase activity. Wells that contain test buffer instead of enzyme act as a control for the background kinase activity.
The IC50 values are determined from concentration-activity analyses by iterative calculation using a sigmoidal curve analysis algorithm (FIFTY, based on GraphPAD Prism Version 3.03) with a variable Hill coefficient.
The molecule `COc1cc(CNC2CCCCC2)ccc1Nc1ncc(C(F)(F)F)c(NCc2ccc(C)cc2N(C)S(C)(=O)=O)n1` [Example 109] showed a pIC50 of 8.70.
On the same count and under the same terms, under `CNCc1ccc(Nc2ncc(C(F)(F)F)c(NCc3ccc(C)cc3N(C)S(C)(=O)=O)n2)c(OC)c1` [Example 25] stands 9.00; under `COc1cc(CN(C)C)ccc1Nc1ncc(C(F)(F)F)c(NCc2ccc(C)cc2N(C)S(C)(=O)=O)n1` [Example 3], 9.00.
The molecule `CCNCc1ccc(Nc2ncc(C(F)(F)F)c(NCc3ccc(C)cc3N(C)S(C)(=O)=O)n2)c(OC)c1` [Example 66] showed a pIC50 of 9.00.
The same measure, in the same setting: next, `COc1cc(C(=O)N[C@H]2CC[C@H](N3CCOCC3)CC2)ccc1Nc1ncc(C(F)(F)F)c(NCc2ccc(C)cc2N(C)S(C)(=O)=O)n1` [Example 76]: 8.70; `COc1cc(C(=O)NC2CCN(C3CCOCC3)CC2)ccc1Nc1ncc(C(F)(F)F)c(NCc2ccc(C)cc2N(C)S(C)(=O)=O)n1` [Example 44]: 8.70; `COc1cc(N2CCN(C3COC3)CC2)ccc1Nc1ncc(C(F)(F)F)c(NCc2ccc(F)cc2N(C)S(C)(=O)=O)n1` [Example 98]: 8.52.
With `COc1cc(CNC2CCOCC2)ccc1Nc1ncc(C(F)(F)F)c(NCc2ccc(C)cc2N(C)S(C)(=O)=O)n1` [Example 35], the pIC50 is 8.52.
`COc1cc(C(=O)NC2CCN(c3ccccc3)CC2)ccc1Nc1ncc(C(F)(F)F)c(NCc2ccc(C)cc2N(C)S(C)(=O)=O)n1` [Example 55]: the negative-log IC50 (pIC50) is 7.96.
As to `COc1ccc(CNc2nc(Nc3ccc(NC(C)=O)c(OC)c3)ncc2C(F)(F)F)c(N(C)S(C)(=O)=O)c1` [Example 87], the pIC50 is 9.00.
Same read-out and setting: under `COc1cc(CNC(C)C)ccc1Nc1ncc(C(F)(F)F)c(NCc2ccc(C)cc2N(C)S(C)(=O)=O)n1` [Example 89] stands 8.70; under `COc1cc(CNC2CC2)ccc1Nc1ncc(C(F)(F)F)c(NCc2ccc(C)cc2N(C)S(C)(=O)=O)n1` [Example 72], 8.52; under `COc1cc(C(=O)NC2CCN3CCCC3C2)ccc1Nc1ncc(C(F)(F)F)c(NCc2ccc(C)cc2N(C)S(C)(=O)=O)n1` (stereo not shown) [Example 49], 8.40.
The molecule `COc1cc(CNC2CCN(C)CC2)ccc1Nc1ncc(C(F)(F)F)c(NCc2ccc(C)cc2N(C)S(C)(=O)=O)n1` [Example 59] showed a pIC50 of 8.52. This pIC50 and that of the molecule before are within 0.2 log units of each other.

Usually pEC50 stands for −log10 of the EC50, conventionally taken in molar units. The term pIC50 denotes the negative decadic logarithm of the IC50, by convention in mol/L. A low value points to a high IC50.
